Patent US8143263B2, “Therapeutic agents” (Astrazeneca AB, priority 2008, dated 2012)

Target: T1, recombinant human pancreatic GLK (Homo sapiens, UniProt P35557)
T1 sequence (P35557 1-465): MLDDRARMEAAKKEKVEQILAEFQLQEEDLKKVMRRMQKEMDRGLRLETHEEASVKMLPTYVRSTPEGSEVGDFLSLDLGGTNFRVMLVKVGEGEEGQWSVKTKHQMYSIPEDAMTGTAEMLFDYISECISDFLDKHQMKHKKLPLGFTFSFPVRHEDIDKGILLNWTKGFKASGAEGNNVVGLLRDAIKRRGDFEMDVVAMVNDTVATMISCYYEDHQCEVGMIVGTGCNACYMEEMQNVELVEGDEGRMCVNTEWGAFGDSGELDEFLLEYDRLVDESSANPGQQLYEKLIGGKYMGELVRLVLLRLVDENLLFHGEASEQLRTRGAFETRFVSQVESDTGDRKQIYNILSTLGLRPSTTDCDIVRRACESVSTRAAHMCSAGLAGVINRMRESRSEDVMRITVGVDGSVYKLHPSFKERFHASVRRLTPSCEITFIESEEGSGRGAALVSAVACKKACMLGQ
Assay: biochemical

| SMILES | EC50 [nM] |
| --- | --- |
| O=C(Nc1ccc(F)cn1)[C@H](CCO)Oc1ncnc2c1cnn2-c1ncccc1Cl [Example 143d, (2S)-2-[1-(3-chloro-2-pyridyl)pyrazolo[4,5-e]pyrimidin-4-yl]oxy-N-(5-fluoro-2-pyridyl)-4-hydroxy-butanamide] | 590 |
| N#Cc1cccc(Cl)c1-n1ncc2c(O[C@@H](CN3CC(O)C3)C(=O)Nc3ccc(F)cn3)ncnc21 [Example 242, (2S)-2-[1-(2-chloro-6-cyano-phenyl)pyrazolo[3,4-d]pyrimidin-4-yl]oxy-N-(5-fluoro-2-pyridyl)-3-(3-hydroxyazetidin-1-yl)propanamide] | 220 |
| COCC[C@H](Oc1ncnc2c1cnn2-c1ccccc1C)C(=O)Nc1ccc(C)cn1 [Example 17, (S)-4-methoxy-2-{[1-(2-methylphenyl)-1H-pyrazolo[3,4-d]pyrimidin-4-yl]oxy}-N-(5-methylpyridin-2-yl)butanamide] | 64 |
| Cc1cnc(NC(=O)[C@H](COC2CCC2)Oc2ncnc3c2cnn3-c2cnccc2C)cn1 [Example 188, (2S)-3-cyclobutoxy-N-(5-methylpyrazin-2-yl)-2-(1-(4-methylpyridin-3-yl)-1H-pyrazolo[3,4-d]pyrimidin-4-yloxy)propanamide] | 1100 |
| Cc1cnc(NC(=O)C(COC(C)C)Oc2ncnc3c2cnn3-c2ccccc2Cl)s1 (centres unmarked) [Example 111, 2-[1-(2-chlorophenyl)pyrazolo[4,5-e]pyrimidin-4-yl]oxy-3-isopropoxy-N-(5-methylthiazol-2-yl)propanamide] | 330 |
| COC[C@H](Oc1ncnc2c1cnn2-c1ccccc1Cl)C(=O)Nc1ccc(C)cn1 [Example 87, (2S)-2-(1-(2-chlorophenyl)-1H-pyrazolo[3,4-d]pyrimidin-4-yloxy)-3-methoxy-N-(5-methylpyridin-2-yl)propanamide] | 320 |
| COCC[C@H](Oc1ncnc2c1cnn2-c1ccccc1Cl)C(=O)Nc1ccc(C)cn1 [Example 21, (S)-2-{[1-(2-chlorophenyl)-1H-pyrazolo[3,4-d]pyrimidin-4-yl]oxy}-4-methoxy-N-(5-methylpyridin-2-yl)butanamide] | 32 |
| Cc1ccc(NC(=O)[C@H](COC(C)C)Oc2ncnc3c2cnn3-c2ccccc2C(F)(F)F)nc1 [Example 160, (2S)-3-isopropoxy-N-(5-methylpyridin-2-yl)-2-(1-(2-(trifluoromethyl)phenyl)-1H-pyrazolo[3,4-d]pyrimidin-4-yloxy)propanamide] | 280 |
| CCC(C)C(Sc1ncnc2c1cnn2-c1ccccc1Cl)C(=O)Nc1ccc(C)cn1 (centres unmarked) [Example 56, 2-{[1-(2-chlorophenyl)-1H-pyrazolo[3,4-d]pyrimidin-4-yl]thio}-3-methyl-N-(5-methylpyridin-2-yl)pentanamide] | 3100 |
| Cc1ccc(NC(=O)C(CCS(C)(=O)=O)Oc2ncnc3c2cnn3C)nc1 (centres unmarked) [2-(1-methylpyrazolo[4,5-e]pyrimidin-4-yl)oxy-N-(5-methyl-2-pyridyl)-4-methylsulfonyl-butanamide] | > 100000 |
| COc1ccccc1-n1ncc2c(O[C@@H](CCS(C)(=O)=O)C(=O)Nc3ccc(C)cn3)ncnc21 [Example 12, (S)-2-{[1-(2-methoxyphenyl)-1H-pyrazolo[3,4-d]pyrimidin-4-yl]oxy}-N-(5-methylpyridin-2-yl)-4-(methylsulfonyl)butanamide] | 2400 |
| COC[C@@H](C)OC[C@H](Oc1ncnc2c1cnn2-c1ccccc1Cl)C(=O)Nc1ccc(C)cn1 [Example 153, (2S)-2-(1-(2-chlorophenyl)-1H-pyrazolo[3,4-d]pyrimidin-4-yloxy)-3-((R)-1-methoxypropan-2-yloxy)-N-(5-methylpyridin-2-yl)propanamide] | 280 |
| C[C@H](CO)OC[C@H](Oc1ncnc2c1cnn2-c1ncccc1Cl)C(=O)Nc1ccc(Cl)cn1 [Example 190, (2S)—N-(5-chloropyridin-2-yl)-2-(1-(3-chloropyridin-2-yl)-1H-pyrazolo[3,4-d]pyrimidin-4-yloxy)-3-((R)-1-hydroxypropan-2-yloxy)propanamide] | 370 |
| N#Cc1ccc(NC(=O)[C@H](COCCO)Oc2ncnc3c2cnn3-c2cccc(Cl)c2Cl)nc1 [Example 203, (2S)—N-(5-cyanopyridin-2-yl)-2-(1-(2,3-dichlorophenyl)-1H-pyrazolo[3,4-d]pyrimidin-4-yloxy)-3-(2-hydroxyethoxy)propanamide] | 830 |
| N#Cc1cccc(Cl)c1-n1ncc2c(O[C@@H](CN3CCC3)C(=O)Nc3ccccn3)ncnc21 [Example 221, (2S)-3-(azetidin-1-yl)-2-[1-(2-chloro-6-cyano-phenyl)pyrazolo[3,4-d]pyrimidin-4-yl]oxy-N-(2-pyridyl)propanamide] | 310 |
| COCC(Oc1ncnc2c1cnn2-c1ccccc1OC)C(=O)Nc1ccc(C)cn1 (centres unmarked) [Example 4, 3-methoxy-2-{[1-(2-methoxyphenyl)-1H-pyrazolo[3,4-d]pyrimidin-4-yl]oxy}-N-(5-methylpyridin-2-yl)propanamide] | 3400 |
| N#Cc1ccc(NC(=O)[C@H](CN2CC(O)C2)Oc2ncnc3c2cnn3-c2c(Cl)cccc2Cl)nc1 [Example 234, (2S)—N-(5-cyano-2-pyridyl)-2-[1-(2,6-dichlorophenyl)pyrazolo[3,4-d]pyrimidin-4-yl]oxy-3-(3-hydroxyazetidin-1-yl)propanamide] | 210 |
| COc1ccccc1-n1ncc2c(OC(CCS(C)(=O)=O)C(=O)Nc3ccc(C)cn3)ncnc21 (centres unmarked) [Example 10, 2-{[1-(2-methoxyphenyl)-1H-pyrazolo[3,4-d]pyrimidin-4-yl]oxy}-N-(5-methylpyridin-2-yl)-4-(methylsulfonyl)butanamide] | 2700 |
| N#Cc1ccc(NC(=O)[C@H](CCCO)Oc2ncnc3c2cnn3-c2ncccc2Cl)nc1 [Example 213, (2S)-2-(1-(3-chloropyridin-2-yl)-1H-pyrazolo[3,4-d]pyrimidin-4-yloxy)-N-(5-cyanopyridin-2-yl)-5-hydroxypentanamide] | 1100 |
| O=C(Nc1ccc(F)cn1)[C@H](COCCO)Oc1ncnc2c1cnn2-c1c(Cl)cccc1Cl [Example 218, (2S)-2-[1-(2,6-dichlorophenyl)pyrazolo[4,5-e]pyrimidin-4-yl]oxy-N-(5-fluoro-2-pyridyl)-3-(2-hydroxyethoxy)propanamide] | 215 |
| Cc1nsc(NC(=O)[C@H](COC(C)C)Oc2ncnc3c2cnn3-c2ccccc2Cl)n1 [Example 100, (2S)-2-[1-(2-Chlorophenyl)pyrazolo[4,5-e]pyrimidin-4-yl]oxy-N-(3-methyl-1,2,4-thiadiazol-5-yl)-3-propan-2-yloxypropanamide] | 1000 |
| Cc1ccc(NC(=O)[C@H](CO[C@H](C)CO)Oc2ncnc3c2cnn3-c2ncccc2Cl)nc1 [Example 232, (2S)-2-[1-(3-chloro-2-pyridyl)pyrazolo[3,4-d]pyrimidin-4-yl]oxy-3-[(1R)-2-hydroxy-1-methyl-ethoxy]-N-(5-methyl-2-pyridyl)propanamide] | 540 |
| COCC[C@@H](Oc1ncnc2c1cnn2-c1ccccc1OC)C(=O)Nc1nc(C)cs1 [Example 36, (R)-4-Methoxy-2-{[1-(2-methoxyphenyl)-1H-pyrazolo[3,4-d]pyrimidin-4-yl]oxy}-N-(4-methyl-1,3-thiazol-2-yl)butanamide] | ≥ 100000 |
| CC(C)OCC(Oc1ncnc2c1cnn2-c1ccccc1Cl)C(=O)Nc1nncs1 (centres unmarked) [Example 117, 2-[1-(2-chlorophenyl)pyrazolo[4,5-e]pyrimidin-4-yl]oxy-3-isopropoxy-N-(1,3,4-thiadiazol-2-yl)propanamide] | 6800 |
| Cc1ccc(NC(=O)[C@H](COCCO)Oc2ncnc3c2nnn3-c2ccccc2Cl)nc1 [Example 195, (2S)-2-(3-(2-chlorophenyl)-3H-[1,2,3]triazolo[4,5-d]pyrimidin-7-yloxy)-3-(2-hydroxyethoxy)-N-(5-methylpyridin-2-yl)propanamide] | 2000 |
| CCC(C)C(Sc1ncnc2c1cnn2-c1ccccc1Cl)C(=O)Nc1nc(C)cs1 (centres unmarked) [Example 54, 2-{[1-(2-chlorophenyl)-1H-pyrazolo[3,4-d]pyrimidin-4-yl]thio}-3-methyl-N-(4-methyl-1,3-thiazol-2-yl)pentanamide] | 4000 |
